# Experimental data: patent US7972793B2, “Methods and compositions for the treatment of psychotic disorders through the identification of the SULT4A1-1 haplotype” (Suregene, LLC, priority 2009, dated 2011)
# Read-outs that look alike come from different tables or passages of the source. Marks after values point to notes of the source that are not given here.
# What was measured:
# [1] = tested on: CATIE patients; assay: Kaplan-Meier survival (no hospitalization event) analysis, SULT4A1-1 negative vs positive; assay type: in vivo, human; settings: FIG. 8
# Method: A Kaplan-Meier survival analysis was performed to determine whether there was a difference between the survival (hospitalization) rates for the SULT4A1-1 negative and SULT4A1-1 positive patient populations treated with each of the atypical antipsychotics. Survival plots model the fraction of the population that survived (i.e., no hospitalization event) as a function of time.
# [2] = tested on: patients, populations not segmented by SULT4A1-1 status; settings: meta-analysis, Leucht et al. (2009); negative = greater reduction in PANSS; cited from earlier work
# [3] = tested on: patients, unsegmented populations; settings: Meta-analysis, Leucht et al. (2009); cited from earlier work
# [4] = tested on: CATIE Caucasian subjects; assay: Rate of hospitalization due to exacerbation of psychosis in CATIE by SULT4A1-1 status; assay type: in vivo, human
# Excerpt: For this analysis, the inventors assigned a dichotomous value (positive or negative) for hospitalization status to subjects in each phase of the trial based on only the first hospitalization event for a given patient in that phase.
# [5] = tested on: CATIE Caucasian schizophrenia patients; assay: CATIE Phase 1 drug response: change in total PANSS (LOCF), drug switchers, segmented by SULT4A1-1 status; assay type: in vivo, human; settings: for ≦−20% (number of individuals with this percent change in total PANSS; responders) / ≧−20% (number of individuals with this percent change in total PANSS; non-responders): LOCF; for Non Responder (number) / Responder (number): Table 16, 20% decrease in PANSS threshold
# Excerpt: There are several different metrics for quantifying response in clinical trials of antipsychotic medications. The most commonly used psychometric instrument is the Positive and Negative Syndrome Scale (PANSS), a 30-item semi-quantitative instrument scored by clinical professionals (Kay et al., 1987). The greater the decrease in PANSS score, the better the clinical response. The most direct measure of clinical response is absolute change in PANSS score. In addition to absolute change, the improvement is often reported as a percentage change from baseline PANSS score.
# A decrease of at least 20% in total PANSS is one commonly used threshold for response (Leucht et al., 2009).
# The design of the CATIE study has been described in detail by others (Lieberman et al., 2005; Stroup et al., 2003). […] A total of 738 subjects consented to provide DNA for genetic study. […] Retrospective genetic analyses, judged to be exempt from human studies requirements by an IRB, were conducted in the current study.
# All tested patients were studied using well established clinical endpoints comparing baseline, intermediate, and last observation carried forward (LOCF) for the PANSS scores using CATIE data. LOCF analysis is a commonly used clinical endpoint for clinical trials for neuropsychiatric drugs, with changes in PANSS scores of between negative 20% and negative 30% used as typical endpoints to indicate clinically significant response (Leucht et al., 2009). To remove time on drug as a variable for the CATIE trial, analysis was limited to only those patients who were randomized to a different drug following the initial washout period (drug switchers).
# As mentioned previously, the mean change in absolute or percent PANSS provides an important measure of efficacy in patients undergoing antipsychotic treatments. Indeed, many pivotal trials in the psychosis field used absolute and/or percentage change in PANSS Score as the primary endpoint (Leucht et al., 2009). […] Therefore, in addition to examining a categorical definition of clinically significant response, the inventors determined the impact of segmentation by SULT4A1-1 status on the quantitative measure of clinical improvement—delta PANSS.
# [6] = tested on: CATIE Caucasian schizophrenia patients; assay: Time to discontinuation for all causes in the CATIE study; assay type: in vivo, human; settings: SULT4A1-1 Negative
# Excerpt: The primary endpoint for the CATIE study was time to discontinuation for all causes (Lieberman et al., 2005). Thus the inventors evaluated the effect of SULT41-1 status on this important parameter.
# [7] = tested on: patients, unsegmented populations; settings: first generation antipsychotics; Davis et al. (2003); cited from earlier work
# [8] = tested on: CATIE African American schizophrenia patients; assay: CATIE drug response: change in total PANSS (LOCF), segmented by SULT4A1-1 status, African Americans; assay type: in vivo, human
# Method: The design of the CATIE study has been described in detail by others (Lieberman et al., 2005; Stroup et al., 2003). […] A total of 738 subjects consented to provide DNA for genetic study. […] Retrospective genetic analyses, judged to be exempt from human studies requirements by an IRB, were conducted in the current study. All tested patients were studied using well established clinical endpoints comparing baseline, intermediate, and last observation carried forward (LOCF) for the PANSS scores using CATIE data. […] To remove time on drug as a variable for the CATIE trial, analysis was limited to only those patients who were randomized to a different drug following the initial washout period (drug switchers).
# [9] = tested on: CATIE Phase I non-responders; settings: CATIE Phase II, LOCF; for Responders (number): decrease PANSS ≧ 20%
# [10] = tested on: CATIE schizophrenia patients; assay: Length of successful treatment by the CGI scale (TMSUCC1) in CATIE; assay type: in vivo, human
# Excerpt: The CATIE clinical data set included the Clinical Global Impression (CGI) Scale, an observer-provided assessment of the psychiatric health of the patient (Stroup et al., 2003; Guy 1976). Patients are rated with the CGI Scale from 1 to 7, with higher scores indicating greater severity of illness. The CATIE study provided a response variable that measured the time (in months) of successful treatment as measured by the CGI scale (“TMSUCC1” in the CATIE data).
# The CATIE clinical data set included Clinical Global Impression (CGI) Scale, an observer-provided assessment of the psychiatric health of the patient (Stroup et al., 2003; Guy 1976). Patients are rated with the CGI Scale from 1 to 7, with higher scores indicating greater severity of illness. The CATIE study provided a response variable that measured the time (in months) of successful treatment as measured by the CGI scale (“TMSUCC1” in the CATIE data).
# [11] = SULT4A1-1 Positive, CATIE Phases 1, 2 and/or 3
# [12] = SULT4A1-1 negative, CATIE Phases 1, 2 and/or 3
# [13] = Unsegmented, CATIE Phases 1, 2 and/or 3
# [14] = SULT4A1-1 Negative, CATIE Caucasians
# [15] = SULT4A1-1 Positive, CATIE Caucasians
# [16] = SULT4A1-1 positive group (sign not given)
# [17] = SULT4A1-1 negative group (sign not given)
# [18] = olanzapine SULT4A1-1 + vs olanzapine SULT4A1-1 −, CATIE
# [19] = olanzapine SULT4A1-1 + vs perphenazine SULT4A1-1 +, CATIE
# [20] = olanzapine SULT4A1-1 + vs quetiapine SULT4A1-1 +, CATIE
# [21] = olanzapine SULT4A1-1 + vs risperidone SULT4A1-1 +, CATIE
# [22] = olanzapine SULT4A1-1 + vs unsegmented (all drugs), CATIE
# [23] = olanzapine SULT4A1-1 + vs unsegmented SULT4A1-1 +, CATIE
# [24] = olanzapine SULT4A1-1 + vs unsegmented olanzapine, CATIE
# [25] = olanzapine SULT4A1-1 + vs ziprasidone SULT4A1-1 +, CATIE
smiles,measurement,setting,value
O=C1Cc2cc(CCN3CCN(c4nsc5ccccc45)CC3)c(Cl)cc2N1 [Ziprasidone],Difference between survival (no hospitalization) rates of SULT4A1-1 negative and SULT4A1-1 positive patients,[1],not statistically significant
same,Effect Size vs. Placebo,[2],−0.48
same,"Mean Difference in Total PANSS Score, Olanzapine vs. labelled drug",[3],−8.3
same,HOSP (number of subjects hospitalized),[4]; [11],2
same,HOSP (number of subjects hospitalized),[4]; [12],11
same,HOSP (number of subjects hospitalized),[4]; [13],13
same,"Mean Difference in Total PANSS Score, Olanzapine vs. labelled drug",[5]; CATIE SULT4A1-1 −,−2.1
same,"Mean Difference in Total PANSS Score, Olanzapine vs. labelled drug",[5]; CATIE unsegmented,−4.9
same,≦−20% (number of individuals with this percent change in total PANSS; responders),[5]; [14],6
same,≧−20% (number of individuals with this percent change in total PANSS; non-responders),[5]; [14],32
same,≦−20% (number of individuals with this percent change in total PANSS; responders),[5]; [15],3
same,≧−20% (number of individuals with this percent change in total PANSS; non-responders),[5]; [15],7
same,Non Responder (number),[5]; [16],7
same,Responder (number),[5]; [16],3
same,"Time to discontinuation, mean time in months",[6],8.2*** Months
same,Effect Size vs. FGA,[7],−0.04
same,≦−20% (number of individuals; responders),[8]; SULT4A1-1 Negative,4
same,≧−20% (number of individuals; non-responders),[8]; SULT4A1-1 Negative,22
same,≦−20% (number of individuals; responders),[8]; SULT4A1-1 Positive,0
same,≧−20% (number of individuals; non-responders),[8]; SULT4A1-1 Positive,3
Cc1cc2c(s1)Nc1ccccc1N=C2N1CCN(C)CC1 [Olanzapine],HOSP (number of subjects hospitalized),[4]; [11],1
same,HOSP (rate of hospitalization),[4]; [11],(2.6%)
same,HOSP (rate of hospitalization),"[4]; SULT4A1-1 Positive, CATIE Phases 1, 2 and/or 3, listed as olanzapine",2.6%
same,HOSP (number of subjects hospitalized),[4]; [12],22
same,HOSP (number of subjects hospitalized),[4]; [13],23
same,HOSP (rate of hospitalization),[4]; [13],(14.2%)
same,DELTA PANSS % (mean change in PANSS score from baseline to LOCF),[5]; [14],−3*** %
same,≦−20% (number of individuals with this percent change in total PANSS; responders),[5]; [14],10
same,≧−20% (number of individuals with this percent change in total PANSS; non-responders),[5]; [14],33
same,DELTA PANSS % (mean change in PANSS score from baseline to LOCF),"[5]; SULT4A1-1 Negative, CATIE Caucasians, listed as olanzapine",−3%
same,DELTA PANSS % (mean change in PANSS score from baseline to LOCF),[5]; [15],−24%
same,≦−20% (number of individuals with this percent change in total PANSS; responders),[5]; [15],10
same,≧−20% (number of individuals with this percent change in total PANSS; non-responders),[5]; [15],5
same,Non Responder (number),[5]; [17],33
same,Responder (number),[5]; [17],10
same,Non Responder (number),[5]; [16],5
same,Responder (number),[5]; [16],10
same,Effect size,"[5]; olanzapine SULT4A1-1 + vs SULT4A1-1 + except olanzapine, CATIE",0.68
same,Effect size,[5]; [18],0.93
same,Mean difference (95% CI) in delta PANSS,[5]; [18],−20.9 (−33.4 to −8.4)
same,Effect size,[5]; [19],0.68
same,Mean difference (95% CI) in delta PANSS,[5]; [19],−14.2 (−29.8 to 1.4)
same,Effect size,[5]; [20],0.75
same,Mean difference (95% CI) in delta PANSS,[5]; [20],−14.9 (−28.3 to −1.5)
same,Effect size,[5]; [21],0.93
same,Mean difference (95% CI) in delta PANSS,[5]; [21],−20.9 (−33.2 to −6.0)
same,Effect size,[5]; [22],0.83
same,Mean difference (95% CI) in delta PANSS,[5]; [22],−19.6 (−31.7 to −7.5)
same,Effect size,[5]; [23],0.60
same,Mean difference (95% CI) in delta PANSS,[5]; [23],−13.0 (−24.7 to −1.2)
same,Effect size,[5]; [24],0.69
same,Mean difference (95% CI) in delta PANSS,[5]; [24],−15.5 (−27.8 to −3.2)
same,Effect size,[5]; [25],0.77
same,Mean difference (95% CI) in delta PANSS,[5]; [25],−16.1 (−32.7 to 0.5)
same,Effect size,"[5]; olanzapine-treated SULT4A1-1 positive patients compared to various other SULT4A1-1-drug combinations, CATIE",−0.91 to −0.47
same,delta PANSS,"[5]; overall (not segmented by SULT4A1-1 status), CATIE",−9
same,"Responders (number, out of 58)","[5]; patients unselected for SULT4A1-1 status, 20% PANSS threshold, CATIE Caucasians",20
same,"Time to discontinuation, mean time in months",[6],10.0** Months
same,Nonresponders (number),[9]; SULT4A1-1 Negative,14
same,Responders (number),[9]; SULT4A1-1 Negative,3
same,Nonresponders (number),[9]; SULT4A1-1 Positive,4
same,Responders (number),[9]; SULT4A1-1 Positive,3
same,"Length of Successful Treatment (CGI Months), Mean",[10]; SULT4A1-1 Positive,8.33^d Months
same,"Length of Successful Treatment (CGI Months), Mean",[10]; Unsegmented,6.10 Months
same,≦−20% (number of individuals; responders),[8]; SULT4A1-1 Negative,15
same,≧−20% (number of individuals; non-responders),[8]; SULT4A1-1 Negative,30
same,≦−20% (number of individuals; responders),[8]; SULT4A1-1 Positive,1
same,≧−20% (number of individuals; non-responders),[8]; SULT4A1-1 Positive,3
same,Responders,"[8]; SULT4A1-1 Positive, change in total PANSS ≦−20%",25%
